This passage reports EC50 results from US12291529B2, “Heterocyclic GLP-1 agonists” (Gasherbrum Bio, Inc., priority 2023, dated 2025).

Sequence of GLP-1 Receptor (P43220 24-463, species assumed): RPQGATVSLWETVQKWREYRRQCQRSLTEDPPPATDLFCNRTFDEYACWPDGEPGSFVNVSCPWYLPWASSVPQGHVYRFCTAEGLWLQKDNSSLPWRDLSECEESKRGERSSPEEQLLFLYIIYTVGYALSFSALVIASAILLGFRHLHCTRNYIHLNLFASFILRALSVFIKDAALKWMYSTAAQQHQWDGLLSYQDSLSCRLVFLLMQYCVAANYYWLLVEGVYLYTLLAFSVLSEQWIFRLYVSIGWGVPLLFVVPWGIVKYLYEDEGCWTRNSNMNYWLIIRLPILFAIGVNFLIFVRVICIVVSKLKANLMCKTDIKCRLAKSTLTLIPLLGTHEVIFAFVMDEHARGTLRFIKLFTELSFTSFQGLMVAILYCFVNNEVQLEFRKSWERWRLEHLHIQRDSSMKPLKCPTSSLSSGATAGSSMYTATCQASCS

In this experiment the target is GLP-1 Receptor (Homo sapiens, UniProt P43220). As to the kind of experiment: GLP-1R agonist cAMP stimulation assay (HEK293/GLP1R/CRE-LUC cells, Cisbio cAMP dynamic 2 kit). It is filed as cell-based. Particulars: Table 3, HEK293/GLP1R/CRE-LUC cells, 30 min. The method, then:
Activation of GLP-1 receptor is known to stimulate cyclic AMP (cAMP) production in cells which indicates primary coupling to the G as subunit of the G protein heterotrimeric complex.
To optimize functional activity directed toward G as coupling, a HEK293/CRE-Luc cell line developed by HDB stably expressing the GLP-1 Receptor was used. 200× concentration of compound working solutions were prepared (Agilent Technologies Bravo) with ½ log serial dilution in 384-well Echo LDV plate (Labcyte, CatOLP-0200). 50 nL/well 200× concentration of compound working solutions were moved to 384-well white low volume plate (Greiner, Cat4784075) using Labcyte ECH0550.1×10^5 cells/mL HEK293/GLP1R/CRE-LUC (HD Biosciences) cell suspensions prepared with assay buffer (DPBS containing 0.5 mM IBMX (Sigma, Cat15879) and 0.10 BSA (GENVIEW, Cat4FA016-100g)), 10 uL cell suspensions were added to each well of previous generated assay plate which already contains 50 n^1 compound at 200 xconcentration using ThermioFisher Multidrop Combi (1000 cells/well). Seal the plate and incubate at 37 with […] for 30 m.
After incubation the cAMP assay signal was generated using cAMP dynamic 2 Kit (Cisbio). 5 μL cAMP-d2 working solution was added to each well, followed with 5 L Anti-cAMP antibody-cryptate working solution added to each well using ThermoFisher Multidrop Combi. Incubate at room temperature for 1 hour protected from light. Read the fluorescence at 665 and 615 nm with Reader PerkinElmer EnVision. % oActivity=100%×(mean RLU of test sample−mean RLU of vehicle control)/(mean RLU of MAX control−mean RLU of vehicle control)
Turning to `CC1=Cc2cc(-n3ccn(-c4c5c(nn4-c4cc(C)c(F)c(C)c4)CCN(C(=O)c4cc6cc([C@H]7CCOC(C)(C)C7)ccc6n4[C@@]4(c6noc(=O)[nH]6)C[C@@H]4C)[C@H]5C)c3=O)ccc2S(C)(=O)=N1` (single isomer, unassigned) [Compound 207], the EC50 (as a rule, the concentration needed to bring the measured effect to its halfway point) was 20 pM.
`CCN=S(=O)(c1ccc(-n2ccn(-c3c4c(nn3-c3cc(C)c(F)c(C)c3)CCN(C(=O)c3cc5cc([C@H]6CCOC(C)(C)C6)ccc5n3[C@@]3(c5noc(=O)[nH]5)C[C@@H]3C)[C@H]4C)c2=O)c(F)c1)C1CC1` (single isomer, unassigned) [Compound 208] gave an EC50 of 110 pM.
The same measure for `Cc1cc(-n2nc3c(c2-n2ccn(-c4ccc(S(=O)(=NC5CC5)C5CC5)cc4F)c2=O)[C@H](C)N(C(=O)c2cc4cc([C@H]5CCOC(C)(C)C5)ccc4n2[C@@]2(c4noc(=O)[nH]4)C[C@@H]2C)CC3)cc(C)c1F` (single isomer, unassigned) [Compound 209]: 220 pM.
On to `CC1=Cc2c(ccc(-n3ccn(-c4c5c(nn4-c4cc(C)c(F)c(C)c4)CCN(C(=O)c4cc6cc([C@H]7CCOC(C)(C)C7)ccc6n4[C@@]4(c6noc(=O)[nH]6)C[C@@H]4C)[C@H]5C)c3=O)c2F)S(=O)(C2CC2)=N1` (single isomer, unassigned) [Compound 210], for which the EC50 amounted to 67 pM.
The same measure for `CC1=Cc2c(ccc(-n3ccn(-c4c5c(nn4-c4cc(C)c(F)c(C)c4)CCN(C(=O)c4cc6cc([C@H]7CCOC(C)(C)C7)ccc6n4[C@@]4(c6noc(=O)[nH]6)C[C@@H]4C)[C@H]5C)c3=O)c2F)S(=O)(C2CC2)=N1` (single isomer, unassigned) [Compound 211]: 41 pM.
In turn, `Cc1cc(-n2nc3c(c2-n2ccn(-c4ccc5c(c4)CCCN=S5(=O)C4CC4)c2=O)[C@H](C)N(C(=O)c2cc4cc([C@H]5CCOC(C)(C)C5)ccc4n2[C@@]2(c4noc(=O)[nH]4)C[C@@H]2C)CC3)cc(C)c1F` (single isomer, unassigned) [Compound 212] had an EC50 of 38 pM.
In the case of `Cc1cc(-n2nc3c(c2-n2ccn(-c4ccc5c(c4)CCCN=S5(=O)C4CC4)c2=O)[C@H](C)N(C(=O)c2cc4cc([C@H]5CCOC(C)(C)C5)ccc4n2[C@@]2(c4noc(=O)[nH]4)C[C@@H]2C)CC3)cc(C)c1F` (single isomer, unassigned) [Compound 213], a half-maximal effect (EC50) was put at 120 pM.
With `CN=S(=O)(c1ccc(-n2ccn(-c3c4c(nn3-c3cc(C)c(F)c(C)c3)CCN(C(=O)c3cc5cc([C@H]6CCOC(C)(C)C6)ccc5n3[C@@]3(c5noc(=O)[nH]5)C[C@@H]3C)[C@H]4C)c2=O)c(F)c1Cl)C1CC1` (single isomer, unassigned) [Compound 215] the figure was 74 pM.
The same measure for `CN=S(=O)(c1ccc(-n2ccn(-c3c4c(nn3-c3ccc(F)c(C5CC5)c3)CCN(C(=O)c3cc5cc([C@H]6CCOC(C)(C)C6)ccc5n3[C@@]3(c5noc(=O)[nH]5)C[C@@H]3C)[C@H]4C)c2=O)c(F)c1C)C1CC1` (single isomer, unassigned) [Compound 217]: 200 pM; for `CN=S(=O)(c1ccc(-n2ccn(-c3c4c(nn3-c3cc(C)c(F)c(C)c3)CCN(C(=O)c3cc5cc([C@H]6CCOC(C)(C)C6)ccc5n3[C@@]3(c5noc(=O)[nH]5)C[C@@H]3C)[C@H]4C)c2=O)c(F)c1C(C)C)C1CC1` (single isomer, unassigned) [Compound 219]: 193 pM.
With `CN=S(=O)(c1ccc(-n2ccn(-c3c4c(nn3-c3cc(C)c(F)c(C)c3)CCN(C(=O)c3cc5cc([C@H]6CCOC(C)(C)C6)ccc5n3[C@@]3(c5noc(=O)[nH]5)C[C@@H]3C)[C@H]4C)c2=O)c(F)c1C(C)C)C1CC1` (single isomer, unassigned) [Compound 220] the figure was 134 pM; with `CN=S(=O)(c1ccc(-n2ccn(-c3c4c(nn3-c3cc(C)c(F)c(C)c3)CCN(C(=O)c3cc5cc(C6CCOCC6)ccc5n3[C@@]3(c5noc(=O)[nH]5)C[C@@H]3C)[C@H]4C)c2=O)c(F)c1)C1CC1` (single isomer, unassigned) [Compound 222], 84 pM; with `Cc1cc(-n2nc3c(c2-n2ccn(-c4ccc5c(c4)CCS(C)(=O)=N5)c2=O)[C@H](C)N(C(=O)c2cc4cc([C@H]5CCOC(C)(C)C5)ccc4n2[C@@]2(c4noc(=O)[nH]4)C[C@@H]2C)CC3)cc(C)c1F` (single isomer, unassigned) [Compound 228], 340 pM.
`Cc1cc(-n2nc3c(c2-n2ccn(-c4ccc5c(c4)CCS(C)(=O)=N5)c2=O)[C@H](C)N(C(=O)c2cc4cc([C@H]5CCOC(C)(C)C5)ccc4n2[C@@]2(c4noc(=O)[nH]4)C[C@@H]2C)CC3)cc(C)c1F` (single isomer, unassigned) [Compound 229] registered an EC50 of 42 pM.
With `Cc1cc(-n2nc3c(c2-n2ccn(-c4ccc5c(c4)C=CS(C)(=O)=N5)c2=O)[C@H](C)N(C(=O)c2cc4cc([C@H]5CCOC(C)(C)C5)ccc4n2[C@@]2(c4noc(=O)[nH]4)C[C@@H]2C)CC3)cc(C)c1F` (single isomer, unassigned) [Compound 230] the figure was 48 pM.
With `Cc1cc(-n2nc3c(c2-n2ccn(-c4ccc5c(c4)C=CS(C)(=O)=N5)c2=O)[C@H](C)N(C(=O)c2cc4cc([C@H]5CCOC(C)(C)C5)ccc4n2[C@@]2(c4noc(=O)[nH]4)C[C@@H]2C)CC3)cc(C)c1F` (single isomer, unassigned) [Compound 231] the figure was 14 pM; with `CN=S1(=O)CCC(Oc2ccc(-n3ccn(-c4c5c(nn4-c4cc(C)c(F)c(C)c4)CCN(C(=O)c4cc6cc(C7CCOCC7)ccc6n4[C@@]4(c6noc(=O)[nH]6)C[C@@H]4C)[C@H]5C)c3=O)c(F)c2C)CC1` (single isomer, unassigned) [Compound 232], 37 pM.
The same measure for `CN=S1(=O)CCC(Oc2ccc(-n3ccn(-c4c5c(nn4-c4cc(C)c(F)c(C)c4)CCN(C(=O)c4cc6cc(C7CCOCC7)ccc6n4[C@@]4(c6noc(=O)[nH]6)C[C@@H]4C)[C@H]5C)c3=O)c(F)c2C)CC1` (single isomer, unassigned) [Compound 233]: 28 pM.
`CN=S1(=O)CCC(Oc2ccc(-n3ccn(-c4c5c(nn4-c4cc(C)c(F)c(C)c4)CCN(C(=O)c4cc6cc(C7CCOCC7)ccc6n4[C@@]4(c6noc(=O)[nH]6)C[C@@H]4C)[C@H]5C)c3=O)cc2C(F)F)CC1` (single isomer, unassigned) [Compound 234]: the EC50 came out at 58 pM.
With `CN=S1(=O)CCC(Oc2ccc(-n3ccn(-c4c5c(nn4-c4cc(C)c(F)c(C)c4)CCN(C(=O)c4cc6cc(C7CCOCC7)ccc6n4[C@@]4(c6noc(=O)[nH]6)C[C@@H]4C)[C@H]5C)c3=O)cc2C(F)F)CC1` (single isomer, unassigned) [Compound 235] the figure was 57 pM; with `CN=S1(=O)CCC(Oc2ccc(-n3ccn(-c4c5c(nn4-c4cc(C)c(F)c(C)c4)CCN(C(=O)c4cc6cc([C@H]7CCOC(C)(C)C7)ccc6n4[C@@]4(c6noc(=O)[nH]6)C[C@@H]4C)[C@H]5C)c3=O)cc2C2CC2)CC1` (single isomer, unassigned) [Compound 236], 53 pM.
